Experimental data taken from article PMC6838683, “Discovery of Human Signaling Systems: Pairing Peptides to G Protein-Coupled Receptors” (Cell, 2019).
Residues, ends and D or L forms follow the SMILES beside them.

Key:
Type in all cases: cell-based
BB3 [1] = target: T1, BB3 (Homo sapiens, UniProt P32247); assay: IP1 accumulation (Gq/11), HTRF
T1 construct: hIL-2Ra signal peptide (N); expressed in transfected cells
T1 sequence (P32247 2-399 limits assumed): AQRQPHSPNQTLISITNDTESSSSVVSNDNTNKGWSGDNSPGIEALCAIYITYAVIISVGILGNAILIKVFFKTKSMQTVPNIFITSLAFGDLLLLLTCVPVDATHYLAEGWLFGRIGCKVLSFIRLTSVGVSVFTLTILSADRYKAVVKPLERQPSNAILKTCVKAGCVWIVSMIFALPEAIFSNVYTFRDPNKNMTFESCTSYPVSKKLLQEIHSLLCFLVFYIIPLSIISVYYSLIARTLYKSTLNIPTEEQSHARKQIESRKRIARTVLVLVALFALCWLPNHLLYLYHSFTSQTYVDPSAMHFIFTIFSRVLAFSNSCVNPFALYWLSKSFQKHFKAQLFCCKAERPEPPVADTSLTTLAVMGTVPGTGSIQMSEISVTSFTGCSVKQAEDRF

BB3 [2] = target: T1, BB3; assay: Dynamic mass redistribution (DMR), concentration-response
BB3 [3] = target: T1, BB3; assay: Real-time receptor internalization (TR-FRET), concentration-response
GPR55 [4] = target: T2, GPR55 (Homo sapiens, UniProt Q9Y2T6); assay: Dynamic mass redistribution (DMR), concentration-response; design: hIL-2Ra signal peptide (N); expressed in transfected cells; details: receptor GPR55; mean, SEM and n (2-4); read-out: DMR assays pEC50 (converted)
T2 sequence (Q9Y2T6 2-319 limits assumed): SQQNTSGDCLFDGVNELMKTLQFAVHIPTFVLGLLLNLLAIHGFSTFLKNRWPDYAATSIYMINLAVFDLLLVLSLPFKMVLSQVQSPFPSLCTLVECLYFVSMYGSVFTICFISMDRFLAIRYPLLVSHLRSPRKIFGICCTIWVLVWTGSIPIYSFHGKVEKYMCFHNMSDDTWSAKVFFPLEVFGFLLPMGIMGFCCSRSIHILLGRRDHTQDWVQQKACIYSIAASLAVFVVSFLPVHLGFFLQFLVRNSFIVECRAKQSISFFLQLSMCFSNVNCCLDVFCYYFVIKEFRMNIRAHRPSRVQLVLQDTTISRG
Procedure: (§1) 48 hr prior to parallel assaying, SNAP-tagged oGPCR cells were plated (10,000 cells/well) in fibronectin-coated 384-well Epic biosensor microplates (Corning) and poly-D-lysine coated white 384-well plates (for internalization assays). SNAP- GLP-1 receptor was plated alongside orphan receptor cells as an internal assay control for internalization assays. Receptor-expression was induced with 0.1 μg/ml doxycycline.
DMR assays provide a single integrated readout of ligand-dependent cellular response, utilizing an optical biosensor in specialized microplates to detect wavelength shifts of reflected light as it passes through the biosensor and the lower portion of the cell (∼150-200 nm). As a signal pathway agnostic approach, DMR assays are well-suited to the study of GPCRs ([Fang et al., 2008], [Schröder et al., 2011]). The mass redistribution response (Δ picometer (pm)) likely reflects a number of intracellular events, including cytoskeletal rearrangement, protein trafficking and receptor internalization. Orphan receptor-expressing cells were gently washed twice with assay buffer (HBSS with 1 mM CaCl2, 1 mM MgCl2, 20 mM HEPES, 0.01% pluronic F-68, pH 7.4) containing 0.1% DMSO and cells were equilibrated for 90 min at 22°C in the EPIC Benchtop (BT) System (Corning) to establish a stable DMR signal. After 3-5 min baseline recordings, peptides (10 μM) were added in duplicate wells using an electronic 384-channel Viaflo pipette (Integra Biosciences, Switzerland) and DMR responses were measured for 60 min at 22°C. 100 nM norepinephrine was included as an internal assay control to assess the cellular DMR response via endogenously-expressed adrenoceptors in the TREx 293 cells. Real-time data were processed using the BT to column converter MS-Excel macro (Corning) and analyzed in GraphPad Prism 7.0. DMR recordings in peptide screening experiments were buffer and solvent corrected and the area under the curve (AUC) was quantified. For subsequent validation experiments, peptides were diluted in assay buffer containing 0.1% DMSO and DMR assays were performed as above. […] Data represent mean ± standard error of the mean (SEM) from at least 3 biologically independent experiments.

GPR55 [5] = target: T2, GPR55; assay: Real-time receptor internalization (TR-FRET), concentration-response; design: hIL-2Ra signal peptide (N); expressed in transfected cells; details: receptor GPR55; mean, SEM and n (3-4); read-out: Internalization assays pEC50 (converted)
Procedure: as §1
A TR-FRET real-time internalization assay was used to examine peptide-dependent changes in orphan receptor localization as described previously ([Foster and Bräuner-Osborne, 2018]). Surface-expressed SNAP-tagged receptors were labeled with a cell-impermeable luminescent terbium cryptate (100 nM SNAP Lumi4-Tb; Cisbio, France) for 1 hr at 37°C. Cells were washed to remove excess terbium and incubated with fluorescein-O-acetic acid (100 μM; Sigma Aldrich) for 5 min at 37°C. Peptides were added as for DMR assays, and internalization responses were recorded for 60 min at 37°C using an EnVision 2104 Multimode plate reader (PerkinElmer). 100 nM GLP-1 was used as a positive control for SNAP-GLP1R internalization. Real-time internalization responses were calculated based on TR-FRET (excitation 340 nm; emission 520 nm and 615 nm), and were expressed as the ratio between donor (terbium) and acceptor (fluorescein) emission. For peptide screening analysis (both DMR and internalization assays), we calculated the area under the curve from the real-time traces. […] Validation experiments for receptor internalization were performed as above. Internalization data was processed in MS-Excel and area under the curve was used to generate concentration-response curves using GraphPad Prism 7.0. Data represent mean ± standard error of the mean (SEM) from at least 3 biologically independent experiments.

GPR1 = target: T3, GPR1 (Homo sapiens, UniProt P46091); assay: β-arrestin recruitment (PathHunter); details: receptor GPR1; mean, SEM and n (2-3); read-out: b-arrestin recruitment assays (PathHunter) pEC50 (converted)
T3 sequence (P46091 1-355): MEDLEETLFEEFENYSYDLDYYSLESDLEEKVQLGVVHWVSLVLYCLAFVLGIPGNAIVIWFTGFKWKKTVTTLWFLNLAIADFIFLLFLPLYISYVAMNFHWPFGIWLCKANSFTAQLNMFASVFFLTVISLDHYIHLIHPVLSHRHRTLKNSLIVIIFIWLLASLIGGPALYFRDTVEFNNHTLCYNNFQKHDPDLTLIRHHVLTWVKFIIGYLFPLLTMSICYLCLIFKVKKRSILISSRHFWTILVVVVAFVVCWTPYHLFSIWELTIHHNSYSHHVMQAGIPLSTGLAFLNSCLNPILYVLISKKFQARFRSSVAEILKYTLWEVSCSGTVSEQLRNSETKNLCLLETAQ
Procedure: PathHunter eXpress Assays (DiscoverX) were performed in 384-well format according to the manufacturer’s recommendations. GPR1 cells were incubated with peptides for 90 min and luminescence measured using an EnSpire 2300 Multimode plate reader (PerkinElmer).

[6] = receptor BB3, mean, SEM and n (2-4), read-out: IP1 accumulation assays pEC50 (converted)
[7] = receptor BB3, mean, SEM and n (3), read-out: DMR assays pEC50 (converted)
[8] = receptor BB3, mean, SEM and n (3), read-out: Internalization assays pEC50 (converted)
[9] = receptor BB3, mean, SEM and n (3)

CC(C)C[C@H](NC(=O)[C@H](CCCCN)NC(=O)[C@H](CCC(N)=O)NC(=O)[C@@H](NC(=O)[C@H](CCCCN)NC(=O)[C@H](CO)NC(=O)[C@H](Cc1ccc(O)cc1)NC(=O)[C@H](Cc1c[nH]cn1)NC(=O)[C@H](Cc1ccccc1)NC(=O)[C@H](CC(C)C)NC(=O)[C@@H](N)Cc1ccccc1)[C@@H](C)O)C(N)=O [67 resynthesized] (H-FLFHYSKTQKL-NH2)
EC50 (BB3 [1]; [6]): 1.66 µM
EC50 (BB3 [2]; [7]): 2.69 µM
EC50 (BB3 [3]; [8]): 34.7 µM

CC[C@H](C)[C@H](NC(=O)[C@H](CC(=O)O)NC(=O)[C@@H](NC(=O)[C@H](Cc1ccc(O)cc1)NC(=O)[C@@H](NC(=O)CNC(=O)[C@H](CC(N)=O)NC(=O)[C@@H](NC(=O)[C@H](CC(C)C)NC(=O)[C@H](Cc1ccc(O)cc1)NC(=O)[C@H](CC(=O)O)NC(=O)[C@H](CC(C)C)NC(=O)[C@H](CCCNC(=N)N)NC(=O)[C@H](CO)NC(=O)[C@H](Cc1ccc(O)cc1)NC(=O)[C@H](CCCNC(=N)N)NC(=O)[C@@H](N)CCCCN)[C@@H](C)CC)[C@@H](C)CC)C(C)C)C(=O)O [114 resynthesized] (H-KRYSRLDYLINGIYVDI-OH)
EC50 (GPR55 [4]): 3.89 µM
EC50 (GPR55 [5]): 15.8 µM

CSCC[C@H](NC(=O)[C@H](Cc1ccccc1)NC(=O)CNC(=O)CNC(=O)[C@@H](N)Cc1ccc(O)cc1)C(=O)N[C@@H](CCCNC(=N)N)C(=O)N[C@@H](CCCNC(=N)N)C(=O)N[C@H](C(=O)NCC(=O)N[C@@H](CCCNC(=N)N)C(=O)N1CCC[C@H]1C(=O)N[C@@H](CCC(=O)O)C(=O)N[C@@H](Cc1c[nH]c2ccccc12)C(=O)N[C@@H](Cc1c[nH]c2ccccc12)C(=O)N[C@@H](CCSC)C(=O)N[C@@H](CC(=O)O)C(=O)N[C@@H](Cc1ccc(O)cc1)C(=O)N[C@@H](CCC(N)=O)C(=O)N[C@@H](CCCCN)C(=O)N[C@@H](CCCNC(=N)N)C(=O)N[C@@H](Cc1ccc(O)cc1)C(=O)NCC(=O)NCC(=O)N[C@@H](Cc1ccccc1)C(=O)N[C@@H](CC(C)C)C(=O)O)C(C)C [158 resynthesized] (H-YGGFMRRVGRPEWWMDYQKRYGGFL-OH)
EC50 (BB3 [1]; IP1 accumulation assays pEC50, receptor BB3, mean, SEM and n (2-4)): 3.72 µM
EC50 (BB3 [2]; DMR assays pEC50, receptor BB3, mean, SEM and n (3)): 110 µM
EC50 (BB3 [3]; Internalization assays pEC50): 3.89 µM

CC(C)C[C@H](NC(=O)[C@H](Cc1ccccc1)NC(=O)CNC(=O)CNC(=O)[C@@H](N)Cc1ccc(O)cc1)C(=O)O [158.2 (Phoenix)]
EC50 (BB3 [1]): 0.0158 µM
EC50 (BB3 [2]): 0.245 µM
EC50 (BB3 [3]): 4.68 µM

CC(C)C[C@H](NC(=O)[C@H](CCCCN)NC(=O)[C@H](CCC(N)=O)NC(=O)[C@@H](NC(=O)[C@H](CCCCN)NC(=O)[C@H](CO)NC(=O)[C@H](Cc1ccc(O)cc1)NC(=O)[C@H](Cc1c[nH]cn1)NC(=O)[C@H](Cc1ccccc1)NC(=O)[C@H](CC(C)C)NC(=O)[C@@H](N)Cc1ccccc1)[C@@H](C)O)C(N)=O [Neuromedin U pre-pro_(1-11)] (H-FLFHYSKTQKL-NH2)
EC50 (BB3 [1]; BB3, mean, SEM and n, read-out: pEC50, IP1 (converted)): 2.19 µM
EC50 (BB3 [2]; BB3, mean, SEM and n, read-out: pEC50, DMR (peak) (converted)): 2.29 µM
EC50 (BB3 [3]; BB3, mean, SEM and n, read-out: pEC50, Internalization (AUC) (converted)): 31.6 µM

CC(C)C[C@H](NC(=O)[C@H](CCCNC(=N)N)NC(=O)[C@@H](N)CCCCN)C(=O)NCC(=O)N[C@@H](CCC(=O)O)C(=O)N[C@@H](CC(C)C)C(=O)N[C@@H](Cc1ccccc1)C(=O)N[C@@H](CC(N)=O)C(=O)N1CCC[C@H]1C(=O)N[C@@H](Cc1ccc(O)cc1)C(=O)N[C@@H](Cc1ccc(O)cc1)C(=O)N[C@@H](CC(=O)O)C(=O)N1CCC[C@H]1C(=O)N[C@@H](CC(C)C)C(=O)N[C@@H](CCC(N)=O)C(=O)N[C@@H](Cc1c[nH]c2ccccc12)C(=O)N[C@@H](CCCCN)C(=O)N[C@@H](CO)C(=O)N[C@@H](CO)C(=O)N[C@@H](Cc1c[nH]cn1)C(=O)N[C@@H](Cc1ccccc1)C(=O)N[C@@H](CCC(=O)O)C(=O)O [Peptide 143.1] (H-KRLGELFNPYYDPLQWKSSHFE-OH)
EC50 (GPR55 [4]): 25.1 µM

CSCC[C@H](NC(=O)[C@H](Cc1c[nH]c2ccccc12)NC(=O)[C@H](Cc1c[nH]c2ccccc12)NC(=O)[C@H](CCC(=O)O)NC(=O)[C@@H]1CCCN1C(=O)[C@H](CCCNC(=N)N)NC(=O)CNC(=O)[C@@H](N)C(C)C)C(=O)N[C@@H](CC(=O)O)C(=O)N[C@@H](Cc1ccc(O)cc1)C(=O)N[C@@H](CCC(N)=O)C(=O)N[C@@H](CCCCN)C(=O)N[C@@H](CCCNC(=N)N)C(=O)N[C@@H](Cc1ccc(O)cc1)C(=O)NCC(=O)NCC(=O)N[C@@H](Cc1ccccc1)C(=O)N[C@@H](CC(C)C)C(=O)O [Peptide 158.4] (H-VGRPEWWMDYQKRYGGFL-OH)
EC50 (BB3 [1]): 16.2 µM
EC50 (BB3 [2]): 8.71 µM
EC50 (BB3 [3]): 10.2 µM

CSCC[C@H](NC(=O)[C@H](Cc1c[nH]c2ccccc12)NC(=O)[C@H](Cc1c[nH]c2ccccc12)NC(=O)[C@H](CCC(=O)O)NC(=O)[C@@H]1CCCN1)C(=O)N[C@@H](CC(=O)O)C(=O)N[C@@H](Cc1ccc(O)cc1)C(=O)N[C@@H](CCC(N)=O)C(=O)N[C@@H](CCCCN)C(=O)N[C@@H](CCCNC(=N)N)C(=O)N[C@@H](Cc1ccc(O)cc1)C(=O)NCC(=O)NCC(=O)N[C@@H](Cc1ccccc1)C(=O)N[C@@H](CC(C)C)C(=O)O [Peptide 158.6] (H-PEWWMDYQKRYGGFL-OH)
EC50 (BB3 [1]): 31.6 µM
EC50 (BB3 [2]): 0.832 µM
EC50 (BB3 [3]): 9.55 µM

CSCC[C@H](NC(=O)[C@H](CC(C)C)NC(=O)[C@H](Cc1cnc[nH]1)NC(=O)CNC(=O)[C@@H](NC(=O)[C@H](C)NC(=O)[C@H](Cc1c[nH]c2ccccc12)NC(=O)[C@H](Cc1cnc[nH]1)NC(=O)[C@H](CC(N)=O)NC(=O)CN)C(C)C)C(N)=O [Peptide 167.1]
EC50 (BB3 [1]; [6]): 2.51 µM
EC50 (BB3 [2]; [7]): 0.49 µM
EC50 (BB3 [3]; [8]): 14.5 µM
EC50 (GPR1): 22.9 µM

FLFHYSKTQKL [67 original]
IP1 accumulation assays Emax (BB3 [1]; receptor BB3, mean, SEM and n (2-4)): 62.1 nM
DMR assays Emax (peak or AUC) (BB3 [2]; [9]): 199
Internalization assays Emax (AUC) (BB3 [3]; [9]): 14.6
